Measurements published in article PMC11480411, “Mucosal sugars delineate pyrazine vs pyrazinone autoinducer signaling in Klebsiella oxytoca” (Nature Communications, 2024).
Where “and” joins values, the source holds several entries; their conditions need not be identical. Identical values can stand only once.

Key:
Type in all cases: cell-based
[1] = tested on: 314-member panel of human G protein-coupled receptors (GPCRs); test: PRESTO-Tango screen of 314-member human GPCR panel; details: 100 µM, HTLA cells
Procedure: The PRESTO-Tango analyses were performed as previously published. Briefly, HTLA cells, a HEK293 cell line that stably expresses β-arrestin-TEV and tTA-Luciferase (a kind gift from Gilad Barnea, Brown University), were plated in 96-well tissue culture plates (Eppendorf) in DMEM containing 10% FBS and 1% Penicillin/Streptomycin. One day after plating (after reaching approximately 90% confluence), 200 ng per well GPCR-Tango plasmids[37] in 20 μL DMEM were individually mixed with 400 ng polyethylenimine (Polysciences) in an equal volume of DMEM and incubated for 20 min at room temperature before adding the transfection mixture to the HTLA cells. 16-24 h after transfection, medium was replaced with 180 μL fresh DMEM containing 1% Penicillin/Streptomycin and 10 mM HEPES and 20 μL of 3 or 3-Homo to reach a final concentration of 100 μM. Supernatants were aspirated 20 h after stimulation and 50 μl per well of Bright-Glo solution (Promega) diluted 20-fold with PBS containing 20 mM HEPES was added into each well. After 15 min incubation at room temperature, luminescence was quantified using a Spectramax i3x microplate reader (Molecular Devices). Activation fold for each sample was calculated by dividing relative luminescence units (RLU) for each condition by RLUs from PBS control. […]

[2] = target: T1, ADRB3 (Homo sapiens, UniProt P13945); test: PRESTO-Tango GPCR screen; details: 100 µM
T1 construct: purchased PRESTO-Tango GPCR kit (Roth lab / Addgene)
Procedure, shortened: (§1)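 HTLA cells (HEK293 stably expressing β-arrestin-TEV and tTA-luciferase) transiently transfected with GPCR-Tango plasmids, then exposed to compound at 100 μM final for 20 h. Luminescence read after Bright-Glo; activation fold = RLU over PBS control. Dose-response spanned 10^−4 M to 10^−15 M.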

[3] = target: T2, CASR (Homo sapiens, UniProt P41180); test: PRESTO-Tango GPCR screen; details: 100 µM
T2 construct: purchased PRESTO-Tango GPCR kit (Roth lab / Addgene)
Procedure, shortened: as §1

[4] = target: T3, CHRM1 (Homo sapiens, UniProt P11229); test: PRESTO-Tango GPCR screen; details: 100 µM
T3 construct: purchased PRESTO-Tango GPCR kit (Roth lab / Addgene)
Procedure, shortened: as §1

[5] = target: T4, CNR1 (Homo sapiens, UniProt P21554); test: PRESTO-Tango GPCR screen; details: 100 µM
T4 construct: purchased PRESTO-Tango GPCR kit (Roth lab / Addgene)
Procedure, shortened: as §1

[6] = target: T5, CXCR3 (Homo sapiens, UniProt P49682); test: PRESTO-Tango GPCR screen; details: 100 µM
T5 construct: purchased PRESTO-Tango GPCR kit (Roth lab / Addgene)
Procedure, shortened: as §1

[7] = target: T6, DRD2 (Homo sapiens, UniProt P14416); test: PRESTO-Tango GPCR screen; details: 100 µM
T6 construct: purchased PRESTO-Tango GPCR kit (Roth lab / Addgene)
Procedure, shortened: as §1

[8] = target: T7, EDNRB (Homo sapiens, UniProt P24530); test: PRESTO-Tango GPCR screen; details: 100 µM
T7 construct: purchased PRESTO-Tango GPCR kit (Roth lab / Addgene)
Procedure, shortened: as §1

[9] = target: T8, F2RL2 (Homo sapiens, UniProt O00254); test: PRESTO-Tango GPCR screen; details: 100 µM
T8 construct: purchased PRESTO-Tango GPCR kit (Roth lab / Addgene)
Procedure, shortened: as §1

[10] = target: T9, FPR1 (Homo sapiens, UniProt P21462); test: PRESTO-Tango GPCR screen; details: 100 µM
T9 construct: purchased PRESTO-Tango GPCR kit (Roth lab / Addgene)
Procedure, shortened: as §1

[11] = target: T10, GLP1R (Homo sapiens, UniProt P43220); test: PRESTO-Tango GPCR screen; details: 100 µM
T10 construct: purchased PRESTO-Tango GPCR kit (Roth lab / Addgene)
Procedure, shortened: as §1

[12] = target: T11, GPR115 (Homo sapiens, UniProt Q8IZF3); test: PRESTO-Tango GPCR screen; details: 100 µM
T11 construct: purchased PRESTO-Tango GPCR kit (Roth lab / Addgene)
Procedure, shortened: as §1

[13] = target: T12, GPR174 (Homo sapiens, UniProt Q9BXC1); test: PRESTO-Tango GPCR screen; details: 100 µM
T12 construct: purchased PRESTO-Tango GPCR kit (Roth lab / Addgene)
Procedure, shortened: as §1

[14] = target: T13, GPR50 (Homo sapiens, UniProt Q13585); test: PRESTO-Tango GPCR screen; details: 100 µM
T13 construct: purchased PRESTO-Tango GPCR kit (Roth lab / Addgene)
Procedure, shortened: as §1

[15] = target: T14, GPR64 (Homo sapiens, UniProt Q8IZP9); test: PRESTO-Tango GPCR screen; details: 100 µM
T14 construct: purchased PRESTO-Tango GPCR kit (Roth lab / Addgene)
Procedure, shortened: as §1

[16] = target: T15, GPR85 (Homo sapiens, UniProt P60893); test: PRESTO-Tango GPCR screen; details: 100 µM
T15 construct: purchased PRESTO-Tango GPCR kit (Roth lab / Addgene)
Procedure, shortened: as §1

[17] = target: T16, GPRC5B (Homo sapiens, UniProt Q9NZH0); test: PRESTO-Tango GPCR screen; details: 100 µM
T16 construct: purchased PRESTO-Tango GPCR kit (Roth lab / Addgene)
Procedure, shortened: as §1

[18] = target: T17, GPRC5D (Homo sapiens, UniProt Q9NZD1); test: PRESTO-Tango GPCR screen; details: 100 µM
T17 construct: purchased PRESTO-Tango GPCR kit (Roth lab / Addgene)
Procedure, shortened: as §1

[19] = target: T18, HCTR1 (Homo sapiens, UniProt O43613); test: PRESTO-Tango GPCR screen; details: 100 µM
T18 construct: purchased PRESTO-Tango GPCR kit (Roth lab / Addgene)
Procedure, shortened: as §1

[20] = target: T19, LPAR6 (Homo sapiens, UniProt P43657); test: PRESTO-Tango GPCR screen; details: 100 µM
T19 construct: purchased PRESTO-Tango GPCR kit (Roth lab / Addgene)
Procedure, shortened: as §1

[21] = target: T20, MC5R (Homo sapiens, UniProt P33032); test: PRESTO-Tango GPCR screen; details: 100 µM
T20 construct: purchased PRESTO-Tango GPCR kit (Roth lab / Addgene)
Procedure, shortened: as §1

[22] = target: T21, NPBW1 (Homo sapiens, UniProt P48145); test: PRESTO-Tango GPCR screen; details: 100 µM
T21 construct: purchased PRESTO-Tango GPCR kit (Roth lab / Addgene)
Procedure, shortened: as §1

[23] = target: T22, NPFF1 (Homo sapiens, UniProt Q9GZQ6); test: PRESTO-Tango GPCR screen; details: 100 µM
T22 construct: purchased PRESTO-Tango GPCR kit (Roth lab / Addgene)
Procedure, shortened: as §1

[24] = target: T23, NPY2R (Homo sapiens, UniProt P49146); test: PRESTO-Tango GPCR screen; details: 100 µM
T23 construct: purchased PRESTO-Tango GPCR kit (Roth lab / Addgene)
Procedure, shortened: as §1

[25] = target: T24, QRFP (Homo sapiens, UniProt Q96P65); test: PRESTO-Tango GPCR screen; details: 100 µM
T24 construct: purchased PRESTO-Tango GPCR kit (Roth lab / Addgene)
Procedure, shortened: as §1

[26] = target: T25, RXFP2 (Homo sapiens, UniProt Q8WXD0); test: PRESTO-Tango GPCR screen; details: 100 µM
T25 construct: purchased PRESTO-Tango GPCR kit (Roth lab / Addgene)
Procedure, shortened: as §1

[27] = target: T26, TAAR5 (Homo sapiens, UniProt O14804); test: PRESTO-Tango GPCR screen; details: 100 µM
T26 construct: purchased PRESTO-Tango GPCR kit (Roth lab / Addgene)
Procedure, shortened: as §1

[28] = target: T27, HRH1 (Homo sapiens, UniProt P35367); test: PRESTO-Tango GPCR screen and dose-response; details: for HRH1 dose-response raw reporter signal (Fig. 5b source data): replicate wells
T27 construct: expressed in transfected cells; host or cells: HTLA cells (HEK293 line stably expressing β-arrestin-TEV and tTA-Luciferase)
Procedure, shortened: (§2)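 β-Arrestin recruitment Tango format: HTLA cells, PEI transfection of receptor-Tango construct, 16-24 h; test compound 100 μM final, 20 h; Bright-Glo luminescence; RLU/PBS control RLU = fold activation. Dose-response curves run from 10^−4 M to 10^−15 M.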

[29] = target: T28, HRH3 (Homo sapiens, UniProt Q9Y5N1); test: PRESTO-Tango GPCR screen and dose-response; details: for HRH3 dose-response raw reporter signal (Fig. 5b source data): replicate wells
T28 construct: expressed in transfected cells; host or cells: HTLA cells (HEK293 line stably expressing β-arrestin-TEV and tTA-Luciferase)
Procedure, shortened: as §2

T27 sequence (P35367 whole entry): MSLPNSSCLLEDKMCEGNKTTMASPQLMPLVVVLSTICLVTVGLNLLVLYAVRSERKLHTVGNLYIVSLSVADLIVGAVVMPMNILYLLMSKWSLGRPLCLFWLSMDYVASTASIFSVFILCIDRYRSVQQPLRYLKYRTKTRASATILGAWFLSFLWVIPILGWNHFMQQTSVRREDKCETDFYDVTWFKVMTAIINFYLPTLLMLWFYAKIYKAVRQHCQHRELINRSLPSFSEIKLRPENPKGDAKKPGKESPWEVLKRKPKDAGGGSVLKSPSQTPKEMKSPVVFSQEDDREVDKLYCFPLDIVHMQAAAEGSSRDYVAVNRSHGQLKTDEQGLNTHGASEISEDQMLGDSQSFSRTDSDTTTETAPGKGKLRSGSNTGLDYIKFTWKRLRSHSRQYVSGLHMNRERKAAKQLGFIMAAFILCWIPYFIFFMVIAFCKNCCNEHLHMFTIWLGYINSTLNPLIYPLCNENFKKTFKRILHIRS
T28 sequence (Q9Y5N1 whole entry): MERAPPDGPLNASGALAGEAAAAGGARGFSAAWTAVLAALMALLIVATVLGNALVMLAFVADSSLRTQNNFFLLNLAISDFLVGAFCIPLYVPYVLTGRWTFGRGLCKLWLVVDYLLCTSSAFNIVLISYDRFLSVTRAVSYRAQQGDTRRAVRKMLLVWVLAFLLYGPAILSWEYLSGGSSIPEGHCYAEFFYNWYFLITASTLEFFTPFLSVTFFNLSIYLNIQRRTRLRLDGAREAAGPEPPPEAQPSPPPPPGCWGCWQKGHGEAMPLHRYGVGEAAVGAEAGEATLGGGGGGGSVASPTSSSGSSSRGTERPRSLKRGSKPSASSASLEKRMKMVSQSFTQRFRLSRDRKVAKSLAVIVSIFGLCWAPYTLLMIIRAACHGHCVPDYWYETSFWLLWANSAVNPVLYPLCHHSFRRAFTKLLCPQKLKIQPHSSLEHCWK
T2 sequence (P41180 20-1078): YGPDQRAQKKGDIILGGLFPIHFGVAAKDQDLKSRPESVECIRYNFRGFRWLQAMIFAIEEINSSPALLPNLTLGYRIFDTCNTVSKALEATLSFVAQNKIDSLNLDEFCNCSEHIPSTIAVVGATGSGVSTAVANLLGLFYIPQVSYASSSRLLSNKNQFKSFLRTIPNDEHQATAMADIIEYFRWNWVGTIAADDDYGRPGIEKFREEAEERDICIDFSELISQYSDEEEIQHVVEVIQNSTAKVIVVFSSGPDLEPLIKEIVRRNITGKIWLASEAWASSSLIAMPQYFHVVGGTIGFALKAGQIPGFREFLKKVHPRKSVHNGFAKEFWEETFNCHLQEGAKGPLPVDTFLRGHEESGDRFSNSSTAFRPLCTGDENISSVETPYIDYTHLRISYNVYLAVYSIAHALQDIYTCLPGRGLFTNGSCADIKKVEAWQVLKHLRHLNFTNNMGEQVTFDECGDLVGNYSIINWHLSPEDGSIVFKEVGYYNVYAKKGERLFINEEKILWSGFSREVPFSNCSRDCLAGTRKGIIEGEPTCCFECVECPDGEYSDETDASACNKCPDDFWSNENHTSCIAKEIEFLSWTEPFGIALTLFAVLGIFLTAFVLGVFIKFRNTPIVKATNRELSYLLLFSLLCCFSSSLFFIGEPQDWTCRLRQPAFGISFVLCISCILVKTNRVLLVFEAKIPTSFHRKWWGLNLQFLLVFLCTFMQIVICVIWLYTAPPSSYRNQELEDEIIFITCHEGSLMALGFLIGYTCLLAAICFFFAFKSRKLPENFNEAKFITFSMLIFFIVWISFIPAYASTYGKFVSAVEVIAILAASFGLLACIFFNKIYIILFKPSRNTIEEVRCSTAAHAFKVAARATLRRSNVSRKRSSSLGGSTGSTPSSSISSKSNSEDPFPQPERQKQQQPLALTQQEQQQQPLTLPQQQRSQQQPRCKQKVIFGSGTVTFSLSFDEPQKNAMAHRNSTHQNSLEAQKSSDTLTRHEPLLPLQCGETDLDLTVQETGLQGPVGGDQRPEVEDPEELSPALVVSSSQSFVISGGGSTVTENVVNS
T14 sequence (Q8IZP9 38-1017): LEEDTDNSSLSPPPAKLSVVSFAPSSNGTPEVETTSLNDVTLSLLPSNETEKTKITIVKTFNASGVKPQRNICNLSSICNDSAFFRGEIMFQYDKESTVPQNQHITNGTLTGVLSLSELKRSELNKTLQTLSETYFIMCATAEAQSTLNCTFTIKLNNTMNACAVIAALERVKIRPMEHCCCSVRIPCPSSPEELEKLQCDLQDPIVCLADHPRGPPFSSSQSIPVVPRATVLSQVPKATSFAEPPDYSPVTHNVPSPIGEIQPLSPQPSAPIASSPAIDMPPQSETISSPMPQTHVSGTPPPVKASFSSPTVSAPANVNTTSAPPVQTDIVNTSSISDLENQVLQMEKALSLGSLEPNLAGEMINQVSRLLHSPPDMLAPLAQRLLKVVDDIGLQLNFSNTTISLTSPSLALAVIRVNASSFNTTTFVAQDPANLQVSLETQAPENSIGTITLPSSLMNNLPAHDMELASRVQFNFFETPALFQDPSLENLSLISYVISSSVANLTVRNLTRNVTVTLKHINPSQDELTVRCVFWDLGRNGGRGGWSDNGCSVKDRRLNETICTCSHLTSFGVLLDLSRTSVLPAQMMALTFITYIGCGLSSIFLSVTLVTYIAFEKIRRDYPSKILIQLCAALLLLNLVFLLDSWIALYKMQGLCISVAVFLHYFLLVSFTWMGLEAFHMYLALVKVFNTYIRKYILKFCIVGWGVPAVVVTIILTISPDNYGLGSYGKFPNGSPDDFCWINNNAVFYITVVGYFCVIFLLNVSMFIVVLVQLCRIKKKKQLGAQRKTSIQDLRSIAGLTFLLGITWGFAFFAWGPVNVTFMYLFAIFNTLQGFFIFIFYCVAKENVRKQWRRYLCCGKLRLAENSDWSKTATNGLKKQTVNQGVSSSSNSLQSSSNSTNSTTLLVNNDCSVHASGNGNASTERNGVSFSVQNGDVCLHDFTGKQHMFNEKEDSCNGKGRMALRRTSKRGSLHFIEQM
T17 sequence (Q9NZD1 whole entry): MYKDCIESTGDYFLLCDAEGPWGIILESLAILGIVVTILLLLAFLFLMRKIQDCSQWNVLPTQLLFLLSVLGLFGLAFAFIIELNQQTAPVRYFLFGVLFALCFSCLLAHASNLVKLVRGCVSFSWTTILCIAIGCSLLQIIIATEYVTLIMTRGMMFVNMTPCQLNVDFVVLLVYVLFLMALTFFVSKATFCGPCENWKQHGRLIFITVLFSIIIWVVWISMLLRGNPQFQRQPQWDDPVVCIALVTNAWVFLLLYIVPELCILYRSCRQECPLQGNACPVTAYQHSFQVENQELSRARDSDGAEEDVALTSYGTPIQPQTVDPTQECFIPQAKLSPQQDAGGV
T11 sequence (Q8IZF3 22-695): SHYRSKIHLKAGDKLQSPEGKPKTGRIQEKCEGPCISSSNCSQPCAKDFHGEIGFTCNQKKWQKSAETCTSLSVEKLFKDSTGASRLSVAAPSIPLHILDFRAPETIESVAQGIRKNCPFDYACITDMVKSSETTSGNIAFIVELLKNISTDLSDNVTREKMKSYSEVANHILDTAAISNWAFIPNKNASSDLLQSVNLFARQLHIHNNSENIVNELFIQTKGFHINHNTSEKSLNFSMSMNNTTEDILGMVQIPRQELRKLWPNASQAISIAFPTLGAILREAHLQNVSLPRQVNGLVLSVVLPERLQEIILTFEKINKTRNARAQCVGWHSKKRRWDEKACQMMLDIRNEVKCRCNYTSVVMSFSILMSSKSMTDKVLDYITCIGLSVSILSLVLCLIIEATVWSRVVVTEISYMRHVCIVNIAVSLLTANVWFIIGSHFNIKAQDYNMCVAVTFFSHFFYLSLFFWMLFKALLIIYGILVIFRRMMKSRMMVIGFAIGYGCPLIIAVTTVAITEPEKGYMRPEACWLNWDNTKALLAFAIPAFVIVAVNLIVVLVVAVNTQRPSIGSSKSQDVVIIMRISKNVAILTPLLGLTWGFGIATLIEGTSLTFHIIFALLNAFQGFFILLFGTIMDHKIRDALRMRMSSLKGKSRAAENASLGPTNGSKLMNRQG
T25 sequence (Q8WXD0 whole entry): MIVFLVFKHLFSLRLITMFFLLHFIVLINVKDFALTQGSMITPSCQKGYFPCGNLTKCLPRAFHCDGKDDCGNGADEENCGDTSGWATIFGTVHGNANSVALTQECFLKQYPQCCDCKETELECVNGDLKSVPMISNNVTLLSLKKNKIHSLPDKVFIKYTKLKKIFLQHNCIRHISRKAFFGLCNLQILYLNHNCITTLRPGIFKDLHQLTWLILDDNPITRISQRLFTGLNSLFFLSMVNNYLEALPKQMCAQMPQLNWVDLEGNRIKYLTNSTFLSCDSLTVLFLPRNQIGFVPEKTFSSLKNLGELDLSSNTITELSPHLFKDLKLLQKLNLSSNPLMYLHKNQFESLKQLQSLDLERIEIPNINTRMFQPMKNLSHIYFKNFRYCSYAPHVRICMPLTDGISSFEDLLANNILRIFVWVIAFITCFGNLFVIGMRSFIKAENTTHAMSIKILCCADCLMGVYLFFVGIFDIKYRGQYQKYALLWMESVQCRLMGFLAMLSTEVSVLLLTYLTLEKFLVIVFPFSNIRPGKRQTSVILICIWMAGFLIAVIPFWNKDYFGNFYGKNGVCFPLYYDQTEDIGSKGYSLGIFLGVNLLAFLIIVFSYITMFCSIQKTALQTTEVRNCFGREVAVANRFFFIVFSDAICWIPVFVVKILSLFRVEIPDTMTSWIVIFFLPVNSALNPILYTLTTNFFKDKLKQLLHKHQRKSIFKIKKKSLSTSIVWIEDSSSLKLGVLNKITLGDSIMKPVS

CC(C)Cc1ncc(CCCCNC(=N)N)[nH]c1=O [3-Homo]
selectivity across the GPCR panel [1]: selective agonists for histamine receptor H4
GPCR activation (heatmap value) [2]: -1.912
GPCR activation (heatmap value) [3]: -0.5038
GPCR activation (heatmap value) [4]: -1.546
GPCR activation (heatmap value) [5]: -0.2406
GPCR activation (heatmap value) [6]: 0.846
GPCR activation (heatmap value) [7]: -0.9836
GPCR activation (heatmap value) [8]: -0.6292
GPCR activation (heatmap value) [9]: -0.002642
GPCR activation (heatmap value) [10]: -1.272
GPCR activation (heatmap value) [11]: 0.1789
GPCR activation (heatmap value) [12]: -0.2915
GPCR activation (heatmap value) [13]: 0.4742
GPCR activation (heatmap value) [14]: 0.1425
GPCR activation (heatmap value) [15]: 0.7434
GPCR activation (heatmap value) [16]: -0.7717
GPCR activation (heatmap value) [17]: 0.238
GPCR activation (heatmap value) [18]: 0.05555
GPCR activation (heatmap value) [19]: 0.1163
GPCR activation (heatmap value) [20]: 0.3664
GPCR activation (heatmap value) [21]: 0.4155
GPCR activation (heatmap value) [22]: -0.4089
GPCR activation (heatmap value) [23]: -0.4803
GPCR activation (heatmap value) [24]: 0.3401
GPCR activation (heatmap value) [25]: 0.525
GPCR activation (heatmap value) [26]: 0.2908
GPCR activation (heatmap value) [27]: -0.4757
GPCR activation (heatmap value) ([28]; HRH1, 100 µM): 0.1843
HRH1 dose-response raw reporter signal (Fig. 5b source data) ([28]; Log(10)Conc (M) -4): 49786 and 49898
HRH1 dose-response raw reporter signal (Fig. 5b source data) ([28]; Log(10)Conc (M) -5): 48910 and 46012
HRH1 dose-response raw reporter signal (Fig. 5b source data) ([28]; Log(10)Conc (M) -6): 48701 and 46228
HRH1 dose-response raw reporter signal (Fig. 5b source data) ([28]; Log(10)Conc (M) -7): 46626 and 44830
HRH1 dose-response raw reporter signal (Fig. 5b source data) ([28]; Log(10)Conc (M) -8): 47613 and 46402
HRH1 dose-response raw reporter signal (Fig. 5b source data) ([28]; Log(10)Conc (M) -9): 46045 and 44597
HRH1 dose-response raw reporter signal (Fig. 5b source data) ([28]; Log(10)Conc (M) -10): 46658 and 45508
HRH1 dose-response raw reporter signal (Fig. 5b source data) ([28]; Log(10)Conc (M) -11): 45821 and 45927
HRH1 dose-response raw reporter signal (Fig. 5b source data) ([28]; Log(10)Conc (M) -12): 46189 and 46705
HRH1 dose-response raw reporter signal (Fig. 5b source data) ([28]; Log(10)Conc (M) -13): 47852 and 47304
HRH1 dose-response raw reporter signal (Fig. 5b source data) ([28]; Log(10)Conc (M) -14): 47480 and 47139
HRH1 dose-response raw reporter signal (Fig. 5b source data) ([28]; Log(10)Conc (M) -15): 43822 and 41222
GPCR activation (heatmap value) ([29]; HRH3, 100 µM): -0.5013
HRH3 dose-response raw reporter signal (Fig. 5b source data) ([29]; Log(10)Conc (M) -4): 262 and 192 and 404
HRH3 dose-response raw reporter signal (Fig. 5b source data) ([29]; Log(10)Conc (M) -5): 245 and 283 and 383
HRH3 dose-response raw reporter signal (Fig. 5b source data) ([29]; Log(10)Conc (M) -6): 192 and 292 and 463
HRH3 dose-response raw reporter signal (Fig. 5b source data) ([29]; Log(10)Conc (M) -7): 286 and 312 and 310
HRH3 dose-response raw reporter signal (Fig. 5b source data) ([29]; Log(10)Conc (M) -8): 174 and 312 and 371
HRH3 dose-response raw reporter signal (Fig. 5b source data) ([29]; Log(10)Conc (M) -9): 227 and 248 and 307
HRH3 dose-response raw reporter signal (Fig. 5b source data) ([29]; Log(10)Conc (M) -10): 124 and 254 and 251
HRH3 dose-response raw reporter signal (Fig. 5b source data) ([29]; Log(10)Conc (M) -11): 177 and 189 and 218
HRH3 dose-response raw reporter signal (Fig. 5b source data) ([29]; Log(10)Conc (M) -12): 112 and 153 and 198
HRH3 dose-response raw reporter signal (Fig. 5b source data) ([29]; Log(10)Conc (M) -13): 130 and 206 and 248
HRH3 dose-response raw reporter signal (Fig. 5b source data) ([29]; Log(10)Conc (M) -14): 97 and 162 and 233
HRH3 dose-response raw reporter signal (Fig. 5b source data) ([29]; Log(10)Conc (M) -15): 150 and 124 (2×)
